Measured values reported in ChEMBL document CHEMBL5233269, “Anticancer potential of spirocompounds in medicinal chemistry: A pentennial expedition” (Eur J Med Chem, 2021).

Experiments:
[1] = molecular target: Tumour suppressor p53/oncoprotein Mdm2 (Homo sapiens) (UniProt P04637+Q00987); experiment: Inhibition of MDM2/p53 (unknown origin) interaction at 10 uM relative to control; type: protein assay
[2] = tested on: MCF7; experiment: Anticancer activity against human MCF7 cells assessed as reduction of cell growth; type: functional, cell-based
[3] = tested on: A-431; experiment: Anticancer activity against human A-431 cells; type: functional, cell-based
[4] = tested on: PC-3; experiment: Anticancer activity against human PC-3 cells assessed as reduction of cell growth; type: functional, cell-based
[5] = Anticancer activity against human MCF-10A cells assessed as reduction of cell growth; type: toxicity, cell-based
[6] = tested on: MCF7; experiment: Antiproliferative activity against human MCF7 cells assessed as inhibition of cell viability; type: functional, cell-based
[7] = tested on: K562; experiment: Antiproliferative activity against human K562 cells assessed as inhibition of cell viability; type: functional, cell-based
[8] = tested on: HeLa; experiment: Anticancer activity against human HeLa cells assessed as inhibition of cell proliferation; type: functional, cell-based
[9] = tested on: B16-F10; experiment: Anticancer activity against mouse B16-F10 cells; type: functional, cell-based
[10] = tested on: LNCaP; experiment: Anticancer activity against human LNCaP cells measured after 48 hrs by MTT assay; type: functional, cell-based
[11] = tested on: Ishikawa; experiment: Anticancer activity against human Ishikawa cells measured after 48 hrs by MTT assay; type: functional, cell-based
[12] = tested on: DU-145; experiment: Anticancer activity against human DU-145 cells measured after 48 hrs by MTT assay; type: functional, cell-based; conditions: DU-145, 48 h
[13] = tested on: MCF7; experiment: Anticancer activity against human MCF7 cells measured after 48 hrs by MTT assay; type: functional, cell-based; conditions: MCF7, 48 h
[14] = tested on: MDA-MB-231; experiment: Anticancer activity against human MDA-MB-231 cells measured after 48 hrs by MTT assay; type: functional, cell-based; conditions: MDA-MB-231, 48 h
[15] = tested on: A549; experiment: Cytotoxicity against human A549 cells assessed as inhibition of tumor cell proliferation incubated for 72 hrs by MTT assay; type: functional, cell-based; conditions: A549, 72 h
[16] = tested on: SMMC-7721; experiment: Cytotoxicity against human SMMC-7721 cells assessed as inhibition of tumor cell proliferation incubated for 72 hrs by MTT assay; type: functional, cell-based; conditions: SMMC-7721, 72 h
[17] = tested on: ECa-109 cell line; experiment: Cytotoxicity against human EC109 cells assessed as inhibition of tumor cell proliferation incubated for 72 hrs by MTT assay; type: functional, cell-based; conditions: ECa-109, 72 h
[18] = tested on: MGC-803; experiment: Cytotoxicity against human MGC-803 cells assessed as inhibition of tumor cell proliferation incubated for 72 hrs by MTT assay; type: functional, cell-based; conditions: MGC-803, 72 h
[19] = molecular target: cGMP-specific 3',5'-cyclic phosphodiesterase (Homo sapiens) (UniProt O76074); experiment: Inhibition of PDE5 (unknown origin) at 3 nM relative to control
[20] = tested on: HepG2; experiment: Cytotoxicity against human HepG2 cells incubated overnight by MTT assay; type: functional, cell-based
[21] = tested on: HCT-116; experiment: Cytotoxicity against human HCT-116 cells incubated overnight by MTT assay; type: functional, cell-based
[22] = tested on: LNCaP; experiment: Anticancer activity against human LNCaP cells at 100 uM relative to control; type: functional
[23] = tested on: PC-3; experiment: Anticancer activity against human PC-3 cells at 100 uM relative to control; type: functional
[24] = tested on: HeLa; experiment: Cytotoxicity against human HeLa cells incubated for 24 hrs by MTT assay; type: functional, cell-based
[25] = tested on: HeLa; experiment: Cytotoxicity against human HeLa cells incubated for 48 hrs by MTT assay; type: functional, cell-based
[26] = tested on: MCF7; experiment: Anticancer activity against human MCF7 cells incubated for 48 hrs by MTT assay; type: functional, cell-based; conditions: MCF7, 48 h
[27] = Anticancer activity against human U87 cells incubated for 48 hrs by MTT assay; type: functional, cell-based, U-87MG ATCC; conditions: U-87 MG
[28] = tested on: HepG2; experiment: Anticancer activity against human HepG2 cells incubated for 48 hrs by MTT assay; type: functional, cell-based; conditions: HepG2, 48 h
[29] = tested on: HCT-116; experiment: Anticancer activity against human HCT-116 cells incubated for 48 hrs by MTT assay; type: functional, cell-based; conditions: HCT-116, 48 h
[30] = tested on: A549; experiment: Anticancer activity against human A549 cells incubated for 48 hrs by MTT assay; type: functional, cell-based; conditions: A549, 48 h
[31] = tested on: HFF; experiment: Antiproliferative activity against human HFF cells incubated for 2 days by MTT assay; type: functional, cell-based; conditions: 48 h
[32] = tested on: MCF7; experiment: Antiproliferative activity against human MCF7 cells incubated for 2 days by MTT assay; type: functional, cell-based; conditions: MCF7, 48 h
[33] = tested on: HT-29; experiment: Antiproliferative activity against human HT-29 cells incubated for 2 days by MTT assay; type: functional, cell-based; conditions: HT-29, 48 h
[34] = tested on: T47D; experiment: Antiproliferative activity against human T47D cells incubated for 2 days by MTT assay; type: functional, cell-based; conditions: 48 h
[35] = tested on: HepG2; experiment: Antiproliferative activity against human HepG2 cells incubated for 2 days by MTT assay; type: functional, cell-based; conditions: HepG2, 48 h

Chain of Tumour suppressor p53/oncoprotein Mdm2 (Homo sapiens) (P04637 whole entry, looked up): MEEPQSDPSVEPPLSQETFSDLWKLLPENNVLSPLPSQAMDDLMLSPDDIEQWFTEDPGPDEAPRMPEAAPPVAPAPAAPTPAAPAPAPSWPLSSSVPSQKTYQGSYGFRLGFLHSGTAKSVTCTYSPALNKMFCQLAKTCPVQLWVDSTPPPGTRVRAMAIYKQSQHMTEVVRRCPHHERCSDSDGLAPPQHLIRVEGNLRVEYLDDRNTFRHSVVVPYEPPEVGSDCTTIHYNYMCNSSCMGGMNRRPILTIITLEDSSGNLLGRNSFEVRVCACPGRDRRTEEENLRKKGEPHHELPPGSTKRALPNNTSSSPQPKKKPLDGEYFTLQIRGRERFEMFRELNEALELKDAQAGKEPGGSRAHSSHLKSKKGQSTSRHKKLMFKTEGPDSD
Chain of Tumour suppressor p53/oncoprotein Mdm2 (Homo sapiens) (Q00987 whole entry, looked up): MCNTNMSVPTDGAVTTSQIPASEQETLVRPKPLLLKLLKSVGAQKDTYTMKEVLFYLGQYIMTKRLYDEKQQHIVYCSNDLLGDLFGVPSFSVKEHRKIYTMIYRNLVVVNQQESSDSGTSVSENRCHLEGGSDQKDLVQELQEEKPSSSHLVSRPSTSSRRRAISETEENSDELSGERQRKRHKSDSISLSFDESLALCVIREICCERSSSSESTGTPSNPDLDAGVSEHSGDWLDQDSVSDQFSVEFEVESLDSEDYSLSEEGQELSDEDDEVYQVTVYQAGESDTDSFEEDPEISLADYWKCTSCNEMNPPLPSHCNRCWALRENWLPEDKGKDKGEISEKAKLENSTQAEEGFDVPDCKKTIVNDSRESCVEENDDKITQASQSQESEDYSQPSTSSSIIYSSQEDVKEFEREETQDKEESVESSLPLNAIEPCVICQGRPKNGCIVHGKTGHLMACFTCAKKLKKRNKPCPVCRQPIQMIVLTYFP

Structure (SMILES): CCOC(=O)C1CN(C(=O)N2CCCCC2)C2(C(=O)Nc3ccccc32)C1c1ccccc1O (stereo unspecified)
- inhibition [1]: 57.7%

Structure (SMILES): COc1cccc(N2C(=O)C3(c4ccccc4NC4C(=O)CC(C)(C)CC43)C3C(=O)CC(C)(C)CC32)c1 (stereo unspecified)
- IC50 [2]: 9.62 µM
- IC50 [3]: 55.6 µM
- IC50 [4]: 86.1 µM
- IC50 [5]: 48.1 µM

Structure (SMILES): O=C1/C(=C/c2ccc(Br)cc2)CCCC12[C@@H]1CCCN1[C@@]1(C(=O)Nc3ccccc31)[C@H]2c1ccc(Br)cc1 (stereo partly specified)
- IC50 [6]: 15.5 µM
- IC50 [7]: 15.8 µM

Structure (SMILES): CN1C(=O)N(C)C(=O)C2(CC3(C(=O)c4ccccc4C3=O)N(C)[C@H]2c2ccc(Br)cc2)C1=O
- IC50 [8]: 7.3 µM
- IC50 [9]: 5.2 µM

Structure (SMILES): O=C1NC2(C3=C(C(=O)C4C=CC=CC4C3=O)c3ccccc32)c2ccccc21 (stereo unspecified)
- IC50 [10]: 0.67 µM
- IC50 [11]: 1.9 µM
- IC50 [12]: 2.18 µM
- IC50 [13]: 0.82 µM
- IC50 [14]: 6.88 µM

Structure (SMILES): C[C@]12CC[C@H](O)CC1=CCC1C2CC[C@@]2(C)C1CC[C@@H]2C1=CC2(C(=O)Nc3ccc(F)cc32)C(C#N)=C(N)N1 (stereo partly specified)
- IC50 [15]: 21.3 µM
- IC50 [16]: 10.9 µM
- IC50 [17]: 2.6 µM
- IC50 [18]: 13.8 µM

Structure (SMILES): CCOC(=O)N1CCC2(CC1)NC(=O)c1ccccc1N2
- inhibition [19]: 100%

Structure (SMILES): COc1ccc(/C=C2\CCCC3(C2=O)[C@@H]2CCCN2[C@@]2(C(=O)Nc4ccccc42)[C@H]3c2ccc(OC)cc2)cc1 (stereo partly specified)
- IC50 [6]: 18.6 µM
- IC50 [7]: 13.4 µM

Structure (SMILES): O=C(/C=C/c1cccc(Br)c1)[C@H]1[C@H](c2cccc(Br)c2)C2CSCN2[C@]12C(=O)Nc1cc(Br)c(Br)cc12 (stereo partly specified)
- IC50 [20]: 0.9 µM
- IC50 [21]: 1.57 µM

Structure (SMILES): CN1C(=O)N(C)C(=O)C2(CC3(C(=O)c4ccccc4C3=O)N(C)[C@H]2c2ccccc2)C1=O
- IC50 [8]: 4.3 µM
- IC50 [9]: 3.5 µM

Structure (SMILES): Cc1ccccc1/C=C/C(=O)c1ccc(OP2(Oc3ccc(C(=O)/C=C/c4ccccc4)cc3)=NP3(=NP4(=N2)Oc2ccccc2-c2ccccc2O4)Oc2ccccc2-c2ccccc2O3)cc1 (stereo unspecified)
- Activity [22]: 69.04%
- Activity [23]: 42.36%

Structure (SMILES): Cc1cn(CN2C(=O)C3(c4ccccc42)C(C(=O)c2ccc(F)cc2)C3C(=O)c2ccc(Cl)cc2)nn1 (stereo unspecified)
- IC50 [24]: 11.2 µM
- IC50 [25]: 6.3 µM

Structure (SMILES): O=C1/C(=C/c2c(Cl)cccc2Cl)CCCC12[C@@H]1CCCN1[C@@]1(C(=O)Nc3ccccc31)[C@H]2c1c(Cl)cccc1Cl (stereo partly specified)
- IC50 [6]: 19.4 µM
- IC50 [7]: 16.6 µM

Structure (SMILES): CCOC(=O)[C@H]1[C@@H](NO)[C@@H]2c3ccccc3OC(C)(C)[C@H]2[C@H](O)[C@]12C(=O)Nc1ccc(Cl)cc12
- IC50 [26]: 1.7 µM
- IC50 [27]: 37.5 µM
- IC50 [28]: 18.4 µM
- IC50 [29]: 13 µM
- IC50 [30]: 5.9 µM

Structure (SMILES): O=C1NC2(C3=C(C(=O)C4C=CC=CC4C3=O)c3ccccc32)c2cc(Cl)c(Cl)cc21 (stereo unspecified)
- IC50 [10]: 1.1 µM
- IC50 [11]: 0.75 µM
- IC50 [12]: 2.13 µM
- IC50 [13]: 1.02 µM
- IC50 [14]: 3.01 µM

Structure (SMILES): O=C(/C=C/c1ccc(Br)cc1)[C@H]1[C@H](c2ccc(Br)cc2)C2CSCN2[C@]12C(=O)Nc1ccccc12 (stereo partly specified)
- IC50 [20]: 0.8 µM
- IC50 [21]: 3 µM

Structure (SMILES): O=C(c1ccc(F)cc1)C1C(C(=O)c2ccc(F)cc2)C12C(=O)Nc1ccccc12 (stereo unspecified)
- IC50 [24]: 11.2 µM
- IC50 [25]: 6.25 µM

Structure (SMILES): CCOC(=O)[C@H]1[C@@H](NO)[C@@H]2c3ccccc3OC(C)(C)[C@H]2[C@H](O)[C@]12C(=O)Nc1ccc(F)cc12
- IC50 [26]: 2.5 µM
- IC50 [27]: 41.9 µM
- IC50 [28]: 16.2 µM
- IC50 [29]: 25.4 µM
- IC50 [30]: 4.8 µM

Structure (SMILES): O=C(/C=C/c1ccc(F)cc1)c1ccc(OP2(Oc3ccc(C(=O)/C=C/c4ccc(F)cc4)cc3)=NP3(=NP4(=N2)Oc2ccccc2-c2ccccc2O4)Oc2ccccc2-c2ccccc2O3)cc1
- Activity [22]: 57.66%
- Activity [23]: 35.93%

Structure (SMILES): C[C@]12CC[C@H](O)CC1=CCC1C2CC[C@@]2(C)C1CC[C@@H]2C1=CC2(C(=O)Nc3c(Cl)cccc32)C(C#N)=C(N)N1 (stereo partly specified)
- IC50 [15]: 33 µM
- IC50 [16]: 29.2 µM
- IC50 [17]: 6.4 µM
- IC50 [18]: 17.2 µM

Structure (SMILES): COc1cc(C2=NOC3(Cc4ccccc4C3=O)C2c2ccc(S(C)(=O)=O)cc2)cc(OC)c1OC (stereo unspecified)
- IC50 [31]: 2.32 µM
- IC50 [32]: 24.2 µM
- IC50 [33]: 69.3 µM
- IC50 [34]: 0.07 µM
- IC50 [35]: 0.086 µM
